Experimental data as given in patent publication US10314885B2, “Oxytocin treatment to modify blood glucose and treat metabolic disease” (The Regents of the University of California, priority 2010, dated 2019).
Marks after values point to notes of the source that are not given here.

Experiments:
Type in all cases: in vivo, human
[1] = system: Subjects with a DSM-IV diagnosis of schizophrenia; experiment: Letter Number Sequencing subtest (LNS) of WAIS-III; settings: after 3 weeks of intranasal oxytocin
From the text: (§1) Participants. Subjects with a DSM-IV diagnosis of schizophrenia, confirmed by SCID interview, were enrolled in a double-blind, placebo-controlled, crossover study. Other main inclusion criteria were: minimum 18 years of age, treatment with 1 or 2 approved antipsychotic medication with no dose changes in the previous four weeks, a minimum Positive and Negative Syndrome Scale (PANSS) score of at least 55 with a minimum score of 4 and a Clinical Global Impressions-Severity (CGI-S) scale score of at least 4 (moderately ill) at randomization.
Study Drugs. Subjects were maintained on a stable dose of their pre-study antipsychotic medication regimen. In addition to their antipsychotics, subjects received 3-weeks of daily intranasal oxytocin (Syntocinin, Novartis, Basel Switzerland) dosed 20 IU twice a day for the first week and then 40 IU twice a day for weeks two and three, and 3-weeks of daily intranasal placebo. […]
The Letter Number Sequencing subtest (LNS) is a component of the larger WAIS-III and is used to measure attention and working memory. […] In each trial of the LNS, a list of letters and numbers are read in a mixed order to participants; participants are asked to recall first the digits and then the letters in the order they were presented. […] Scores are calculated by totaling the correct responses for each length. […]

[2] = system: Subjects with a DSM-IV diagnosis of schizophrenia; experiment: PANSS and CGI efficacy assessment, double-blind placebo-controlled crossover study of adjunctive intranasal oxytocin; settings: for CGI-Severity score: Baseline of oxytocin arm (CGI-Severity, not CGI-Improvement); for CGI-I Cohen's d / PANSS Negative Cohen's d / PANSS Total Cohen's d: Week 3, oxytocin vs placebo; for PANSS Total Cohen's d: 0.2 small, 0.5 medium, 0.8 large
From the text: as §1, with “in this” for “in a”, “weeks,” for “weeks, a minimum”, “55” for “55 with a minimum score of 4”, “randomization. Because it was hypothesized that oxytocin may improve paranoia due to its pro-trust effect, subjects were also required to have a score of at least 4 (moderate) on item 6 (suspiciousness/persecution) of the PANSS. This study was approved by the UCSD IRB and written informed consent was obtained from all subjects.” for “randomization.”
(§2) Study Drugs. Subjects were maintained on their pre-study antipsychotic medication regimen and doses were not changed during the study. Subjects received 3-weeks of daily intranasal oxytocin (Syntocinin, Novartis, Basel Switzerland) and 3-weeks of daily intranasal placebo. Oxytocin was dosed at 20 IU (5 sprays) twice a day for the first week and 40 IU (10 sprays) twice a day thereafter. Order of treatment (placebo-oxytocin or oxytocin-placebo) was randomly assigned using a computer generated random sequence.
Efficacy and Safety assessments. Subjects, raters and study staff enrolling patients were blinded to treatment condition. The total study duration for each individual subject was 7 weeks. Subjects were evaluated […]. Visit 1 and 5 were baseline assessments and visits 2, 3, 4 and 6, 7, 8 were the weekly visits for the two treatment periods, respectively. Washout occurred in the week between visit 4 and 5. At each visit raters assessed subjects utilizing the PANSS, CGI-S and CGI-Improvement (CGI-I). PANSS-total at the final visit of each treatment period was chosen a′ priori as the primary efficacy endpoint.
(§3) Safety was assessed at each visit by a medical exam, and assessments of reported adverse events. In addition, urine was collected for osmolality testing and blood was drawn at each visit and analyzed at UCSD laboratories for basic chemistry analysis. Statistical Methods. Data from all subjects who received at least one dose and one assessment in both treatment periods (intent-to-treat population) were subjected to analysisusing SPSS version 11.0. Baseline scores for both drug treatments were compared for similarity using paired t-test. The change in baseline scores from period 1 to period 2 was compared among the placebo-oxytocin versus oxytocin-placebo group using a two-sample t-test to assess for period carry-over effects. PANNS and CGI data were subjected to repeated measures ANOVA with drug and treatment-week as repeated measures factors. Treatment sequence was included as a between-subjects factor to evaluate possible period and carry-over effects. Paired t-tests, corrected for multiple-comparisons using Bonferoni method were used to compare placebo and oxytocin scores at endpoint and each the other assessment visits. Cohen's d statistic was calculated for each measure at endpoint.

[3] = Blood chemistry analysis and urine osmolality at endpoint
Procedure: as §2, §3

[4] = system: Subjects with a DSM-IV diagnosis of schizophrenia; experiment: California Verbal Learning Test (CVLT-II)
From the text: as §1
Study Drugs. Subjects were maintained on a stable dose of their pre-study antipsychotic medication regimen. In addition to their antipsychotics, subjects received 3-weeks of daily intranasal oxytocin (Syntocinin, Novartis, Basel Switzerland) dosed 20 IU twice a day for the first week and then 40 IU twice a day for weeks two and three, and 3-weeks of daily intranasal placebo. Order of treatment (placebo-oxytocin or oxytocin-placebo) was randomly assigned using a computer generated random sequence.
Safety and efficacy assessments. Subjects, raters, and study staff enrolling patients were blinded to treatment condition. The total study duration for each individual subject was 7 weeks, which included a baseline visit (V1), a three-week initial treatment period, a 1 week washout (between V4 and V5), a repeat baseline visit, and a three-week crossover treatment period. Subjects received the cognitive tests a total of 3 times: at baseline visits (V1, and after 3 weeks of treatment with placebo and oxytocin (V4, V7).
The CVLT-II is a commonly-used test of new learning and declarative verbal memory, which closely resembles the HVLT (Hopkins Verbal Learning Test), a part of the standardized MATRICS cognitive battery, now used to measure cognitive changes in Schizophrenia clinical trials. In the CVLT-II, lists of 16 words (List A) from various semantic categories are read over 5 trials. After each trial, subject is asked to recall as many words as they can (free recall). An interference list (List B) is then presented. Free and cued recall of List A is measured immediately following (short delay) and 20 minutes (long delay). At the end of the test, a 44 word recognition task is performed with subjects identifying target words among 28 distractors. The CVLT's format allows assessment of multiple aspects of cognition: overall recall ability, rate of learning over sequential trials, ability to retain learned material, and item recognition.
For each subtest a two-factor repeated ANOVA with drug treatment (placebo/oxytocin) and order of treatment as factors was conducted.

[5] = system: Subjects with a DSM-IV diagnosis of schizophrenia; experiment: Reported adverse events in the crossover study
Procedure: as §2, §3

[6] = Baseline of oxytocin arm, mean (SD)
[7] = Week 1, intranasal 20 IU twice a day, mean (SD)
[8] = Week 2, intranasal 40 IU twice a day, mean (SD)
[9] = Week 3, intranasal 40 IU twice a day, mean (SD)
[10] = after 3 weeks of intranasal oxytocin, Mean (S.E.M.)
[11] = 3 weeks intranasal oxytocin, 15 completers

CC[C@H](C)[C@@H]1NC(=O)[C@H](Cc2ccc(O)cc2)NC(=O)[C@@H](N)CSSC[C@@H](C(=O)N2CCC[C@H]2C(=O)N[C@@H](CC(C)C)C(=O)NCC(N)=O)NC(=O)[C@H](CC(N)=O)NC(=O)[C@H](CCC(N)=O)NC1=O [Oxytocin, Cys-Tyr-Ile-Gln-Asn-Cys-Pro-Leu-Gly]
scores on the LNS, oxytocin versus placebo [1]: no significant difference | reduction on the PANSS-total ([2]; 3 weeks of treatment vs baseline (placebo 3.0 points)): 7.9 point | CGI-Severity score ([2]; mean (SD)): 4.67 (0.61)^ | CGI-Severity score ([2]; mean (SD), listed as oxytocin): 4.67±0.74 | PANSS Gen. Psy. score [2, 6]: 38.8 (7.6) | PANSS Negative score [2, 6]: 20.2 (4.7) | PANSS Positive score [2, 6]: 21.7 (4.1) | PANSS Total score ([2]; Baseline of oxytocin arm, mean (standard deviation)): 81.5 (12.4) | PANSS Total score ([2]; Baseline of oxytocin arm, mean (standard deviation), listed as oxytocin): 81.4±12.43 | PANSS Total score ([2]; Week 1, intranasal 20 IU twice a day, adjunctive to antipsychotics, mean (SD)): 76.3 (11.3) | CGI-I score [2, 7]: 3.33 (0.62) | PANSS Gen. Psy. score [2, 7]: 36.4 (8.1) | PANSS Negative score [2, 7]: 20.1 (4.8) | PANSS Positive score [2, 7]: 20.6 (4.5) | PANSS Total score ([2]; Week 2, intranasal 40 IU twice a day, adjunctive to antipsychotics, mean (SD)): 76.9 (13.2) | CGI-I score [2, 8]: 3.33 (1.20) | PANSS Gen. Psy. score [2, 8]: 36.3 (8.2) | PANSS Negative score [2, 8]: 19.7 (4.3) | PANSS Positive score [2, 8]: 20.5 (4.6) | PANSS Total score ([2]; Week 3 (endpoint), intranasal 40 IU twice a day, adjunctive to antipsychotics, mean (SD)): 73.6 (13.6)** | CGI-I Cohen's d [2]: [0.74] | PANSS Negative Cohen's d [2]: [0.50] | PANSS Total Cohen's d [2]: [0.43] | PANSS Total Cohen's d ([2]; listed as oxytocin): 0.43 | CGI-I Cohen's d ([2]; listed as oxytocin): 0.74 | PANSS Negative Cohen's d ([2]; listed as oxytocin): 0.50 | CGI-I score [2, 9]: 3.07 (0.70)** | PANSS Gen. Psy. score [2, 9]: 34.8 (6.9) | PANSS Negative score [2, 9]: 18.5 (4.5)* | PANSS Positive score [2, 9]: 19.9 (5.2)** | PANSS general psychopathology subscale, oxytocin versus placebo ([2]; any time point): not significantly different | PANSS-total difference oxytocin versus placebo ([2]; baseline): 0.60 | PANSS-total scores, oxytocin versus placebo ([2]; endpoint (week 3) visit, p<0.001): significantly lower | PANSS-total difference oxytocin versus placebo ([2]; endpoint (week 3), p<0.001): 5.46 | PANSS-total difference oxytocin versus placebo ([2]; week 1): 0.60 | PANSS-total difference oxytocin versus placebo ([2]; week 2): 1.20 | CGI-I, oxytocin versus placebo ([2]; week 3, P<0.001): significantly lower | PANSS positive subscale scores, oxytocin versus placebo ([2]; week 3, P=0.006): significantly lower | PANSS negative subscale scores, oxytocin versus placebo ([2]; week 3, p=0.023): significantly lower | measured blood chemistry or urine osmolality, oxytocin versus placebo ([3]; at endpoint): no significant differences | BUN ([3]; blood, at endpoint): 10.8 mg/dL | Bicarb. ([3]; blood, at endpoint): 27.9 mmol/L | Calcium ([3]; blood, at endpoint): 9.3 mg/dL | Chloride ([3]; blood, at endpoint): 101.1 mmol/L | Creatinine ([3]; blood, at endpoint): 0.9 mg/dL | Potassium ([3]; blood, at endpoint): 4.4 mmol/L | Sodium ([3]; blood, at endpoint): 138.5 mmol/L | Glucose ([3]; blood, at endpoint (week 3)): 112.5 mg/dL | blood glucose levels compared to placebo ([3]; intranasal administration): reduction in blood glucose levels | Urine Osmolality ([3]; urine, at endpoint): 607.9 mOsm/kg | CVLT Long Delay Cued Recall Raw [4, 10]: 11.87 (0.97) | CVLT Long Delay Free Recall Raw [4, 10]: 10.87 (0.87) | CVLT Short Delay Cued Recall Raw [4, 10]: 12.00 (0.79) | CVLT Short Delay Free Recall Raw [4, 10]: 10.60 (1.03) | CVLT Total Intrusions Raw [4, 10]: 4.93 (1.90) | CVLT Total Recall Discriminability Raw [4, 10]: 2.22 (0.19) | CVLT Total Recognition Discriminability Raw [4, 10]: 2.97 (0.28) | CVLT Total Repetitions Raw [4, 10]: 13.67 (5.44) | CVLT Trials 1-5 Raw [4, 10]: 55.67 (3.65) | CVLT subscale scores, oxytocin versus placebo ([4]; all 9 subscales, after 3 weeks): scored higher | rates of reported adverse effects, oxytocin compared to placebo ([5]; 3 weeks each treatment): no significant differences | serious adverse events reported during the study ([5]; 3 weeks intranasal oxytocin twice daily): no serious adverse events | Dizzy or lightheaded, subjects reporting [5, 11]: 26.7% | Dyspepsia or nausea, subjects reporting [5, 11]: 26.7% | Headache, subjects reporting [5, 11]: 26.7% | Lethargy, subjects reporting [5, 11]: 0.0% | Nasal Irritation, subjects reporting [5, 11]: 26.7% | Sleep impairment, subjects reporting [5, 11]: 33.3% | tolerability ([5]; given twice daily for three weeks): well-tolerated
